Assay results reported in article PMC10107836 (Chembiochem, 2022).
Values joined by “and” are separate entries in the source; they are usually repeats but may differ in a detail not shown here. Identical values can stand only once.

Key:
AcmJRL [1] = molecular target: T1, AcmJRL (Ananas comosus, UniProt Q53J09); assay: Semiotik glycan array with Cy3-labelled AcmJRL; assay type: binding
T1 sequence (Q53J09 1-145): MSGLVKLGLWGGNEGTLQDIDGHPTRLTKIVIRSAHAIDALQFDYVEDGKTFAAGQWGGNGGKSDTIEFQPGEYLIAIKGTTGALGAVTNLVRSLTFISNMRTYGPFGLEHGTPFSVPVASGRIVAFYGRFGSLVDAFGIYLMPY

[2] = test system: AcmJRL−S‐protein interaction; assay type: binding, SARS‐CoV‐2
AcmJRL [3] = molecular target: T1, AcmJRL; assay type: binding; details: for RFU: FITC‐labelled AcmJRL at 50 μg mL^−1, average RFU±s.d. from 6 replicates
AcmJRL [4] = molecular target: T1, AcmJRL; assay: Reporter ligand displacement assay; assay type: binding; details: carbohydrate at 10 mM
[5] = molecular target: human angiotensin-converting-enzyme-2 (ACE2) receptor, recombinant (human) (UniProt Q9BYF1); assay: SPR
Sequence of human angiotensin-converting-enzyme-2 (ACE2) receptor, recombinant (human) (Q9BYF1 18-740): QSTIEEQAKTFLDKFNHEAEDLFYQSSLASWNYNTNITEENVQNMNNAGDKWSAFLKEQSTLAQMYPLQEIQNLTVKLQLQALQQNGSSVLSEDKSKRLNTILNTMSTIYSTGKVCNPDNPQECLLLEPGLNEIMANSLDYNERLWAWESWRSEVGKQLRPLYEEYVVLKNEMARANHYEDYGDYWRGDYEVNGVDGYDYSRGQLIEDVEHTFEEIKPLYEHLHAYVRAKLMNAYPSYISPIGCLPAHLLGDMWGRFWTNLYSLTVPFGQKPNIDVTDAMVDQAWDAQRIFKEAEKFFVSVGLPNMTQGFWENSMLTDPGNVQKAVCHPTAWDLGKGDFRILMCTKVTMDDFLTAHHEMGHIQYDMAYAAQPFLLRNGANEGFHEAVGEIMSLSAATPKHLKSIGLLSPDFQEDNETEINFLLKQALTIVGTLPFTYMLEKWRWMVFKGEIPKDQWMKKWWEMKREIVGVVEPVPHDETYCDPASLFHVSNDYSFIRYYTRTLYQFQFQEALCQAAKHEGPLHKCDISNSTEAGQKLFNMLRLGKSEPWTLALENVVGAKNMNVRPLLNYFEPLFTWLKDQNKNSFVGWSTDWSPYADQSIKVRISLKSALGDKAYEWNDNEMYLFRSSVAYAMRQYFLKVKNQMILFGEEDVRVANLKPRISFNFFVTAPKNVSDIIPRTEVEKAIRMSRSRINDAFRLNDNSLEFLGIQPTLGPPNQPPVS

[6] = molecular target: SARS-CoV-2 spike RBD (SARS-CoV-2) (UniProt P0DTC2); assay: SPR
AcmJRL [7] = molecular target: T2, AcmJRL (Ananas comosus, UniProt Q53J09); assay type: biochemical; details: SD, n = 3
T2 sequence (Q53J09 2-145): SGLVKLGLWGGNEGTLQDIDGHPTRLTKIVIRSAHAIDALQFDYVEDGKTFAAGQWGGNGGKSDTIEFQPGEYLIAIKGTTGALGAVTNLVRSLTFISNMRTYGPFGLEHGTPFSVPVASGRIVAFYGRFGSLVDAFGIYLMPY

Compound: -3GalNAcβ1-4(L6dTalα1-3)Manα1-3L6dTalα1- [A. hydrophila O34deAc]
- binding on Semiotik glycan array (in words) (AcmJRL [1]): recognised

Compound: OC[C@H]1O[C@@H](O[C@H]2[C@H](O)[C@@H](O)[C@H](O)O[C@@H]2CO)[C@H](O)[C@@H](O)[C@H]1O [D‐lactose, Gal‐β‐1,4Glc]
- effect on AcmJRL binding to S-protein (in words) [2]: did not interfere

Compound: OC[C@H]1O[C@H](O[C@H]2[C@H](O)[C@@H](O)[C@H](O)O[C@@H]2CO)[C@H](O)[C@@H](O)[C@@H]1O [CFG‐GLYCAN ID 195, Glc‐α‐1,4‐Glc‐β]
- RFU (AcmJRL [3]): 33±5 RFU

Compound: OC[C@H]1O[C@H](OC[C@H]2O[C@H](O[C@]3(CO)O[C@H](CO)[C@@H](O)[C@@H]3O)[C@H](O)[C@@H](O)[C@@H]2O)[C@H](O)[C@@H](O)[C@H]1O [D‐raffinose, Gal‐α‐1,6Glc‐α‐1,2Fruc]
- effect on AcmJRL binding to S-protein (in words) [2]: did not interfere

Compound: O=C[C@H](O)[C@@H](O)[C@H](O[C@@H]1O[C@H](CO)[C@@H](O)[C@H](O)[C@H]1O)[C@H](O)CO [cellobiose, Glc‐β‐1,4‐Glc]
- inhibition of AcmJRL, single concentration (in words) (AcmJRL [4]): had no effect

Compound: Man‐α‐1,6(Man‐α‐1,3)Man‐α‐1,6(Man‐α‐1,3)Man‐β [CFG‐GLYCAN ID 310]
- RFU (AcmJRL [3]): 410±141 RFU
- binding response on CFG glycan array (in words) (AcmJRL [3]; FITC‐labelled AcmJRL, 5 and 50 μg mL^−1): highest binding responses

Compound: pineapple-derived jacalin-related lectin AcmJRL (natural protein)
- Kd [5]: 22.1 µM
- koff [5]: 0.0122 s⁻¹
- kon [5]: 590 M⁻¹ s⁻¹
- Kd [6]: 12.9 µM and 35 µM
- koff [6]: 0.0194 s⁻¹
- kon [6]: 1490 M⁻¹ s⁻¹

Compound: OC[C@H]1O[C@H](O[C@H]2[C@H](O)[C@@H](O)[C@H](O)O[C@@H]2CO)[C@H](O)[C@@H](O)[C@@H]1O [maltobiose, Glc‐α‐1,4‐Glc]
- inhibition of AcmJRL, single concentration (in words) (AcmJRL [4]): showed highest inhibition

Compound: CO[C@H]1O[C@H](CO)[C@@H](O)[C@H](O)[C@@H]1O [Me-α-D-Man, methyl α-D-mannopyranoside]
- IC50 (AcmJRL [7]): 10700 µM

Compound: -8(D-Ala1-7)Leg5Acα2-4GlcAβ1-3GlcNAcβ1- [E. coli O161]
- binding on Semiotik glycan array (in words) (AcmJRL [1]): recognised

Compound: CC(=O)N[C@@H]1[C@@H](O)[C@H](O)[C@@H](CO)O[C@H]1O [D-GlcNAc, N‐acetylglucosamine]
- inhibition of AcmJRL, single concentration (in words) (AcmJRL [4]): confirmed as ligands

Compound: -6Manα1- [Mannan]
- binding on Semiotik glycan array (in words) (AcmJRL [1]): confirmed as a ligand

Compound: Manα1-6(Manα1-3)Manβ-sp4 [(Ma)3b]
- binding on Semiotik glycan array (in words) (AcmJRL [1]): showed no binding

Compound: N[C@H]1C(O)O[C@H](CO)[C@@H](O)[C@@H]1O (some centres unmarked) [glucosamine]
- inhibition of AcmJRL, single concentration (in words) (AcmJRL [4]): confirmed as ligands
